Laboratory results as given in patent US20030031723A1, “Formulation and method for preparation of rapid dispersion spheroids which can be heavily titrated” (priority 2001, published 2003).

Test: quantity of water absorbed by the same mass (100 g) of excipients
Format: physicochemical
Text: Below are some examples supporting this statement, which test the quantity of water absorbed by the same mass (100 g) of excipients of different types: […]

With `OC[C@H]1O[C@@H](O[C@H]2[C@H](O)[C@@H](O)C(O)O[C@@H]2CO)[C@H](O)[C@@H](O)[C@H]1O` (stereo partly shown) [Lactose] the “AMOUNT OF WATER ABSORBED PER 100 g OF EXCIPIENT” value was 15 g.
